Test [1] concerns HCT116-MTAP-KO cells (HCT116 MTAP null). Nature of the test: Proliferation inhibition of HCT116 MTAP-KO cells in vitro (CellTiter Glo). Format: cell-based. Particulars: 6 days, 9 concentrations starting from 3 μM, read-out: Cell proliferation inhibition rate HCT116 MTAP null IC50 (nm). An excerpt:
(§1) Biological Test Example 2 Proliferation Inhibition of HCT116 and HCT116 MTAP-KO Cells in Vitro
(§2) HCT116 cell line was purchased from the Chinese Academy of Sciences Cell Bank, and the MTAP gene was knocked out by CRISPR/Cas9 technology to obtain HCT116-MTAP-KO cell line.
(§3) McCoy's 5A medium (Gibco, catalog No. 16600082), fetal bovine serum (Gibco, catalog No. 10099141C), penicillin-streptomycin double antibody (Gibco, catalog No. 15140122), pancreatic enzyme (Gibco, catalog No. 25200056), CellTiter Glo assay kit (Promega, catalog No. G7572), 384-well transparent flat-bottomed black walled cell culture plate (Corning, catalog No. 3764), ultra micro sampler (Tecan, catalog No.D300e), Multimode reader (Biotek, catalog No. SynergyHTX)
(§4) 1. Cell culture: HCT116 and HCT116-MTAP-KO cells were cultured in McCoy'5A medium+10% fetal bovine serum+1% penicillin-streptomycin double antibody; to ensure that they were always in the logarithmic growth phase and the cell viability greater than 95%.
(§5) 2. Compound concentration gradient preparation: The compound to be tested was added to a 384-well plate using an ultra micro sampler, starting from 30 μM (HCT116 cells) or 3 μM (HCT116-MTAP-KO cells), and diluted with DMSO at 3 times for a total of 9 concentrations and set up three duplicate wells.
(§6) 3. Treatment of cells with compounds: Trypsin-digested HCT116 or HCT116-MTAP-KO cell suspension was added to the 384-well plates spotted with the compounds to be tested at 40 μL per well, i.e., 100 cells per well, and the final concentration of DMSO was 0.4%. The cell culture plate was incubated at 37° C. in a 5% CO2 incubator for 6 days.
(§7) 4. Detection: 20 μL of CellTiter Glo reagent was added to each well of the cell culture plate and incubated at room temperature for 30 minutes. A multimode reader was used to detect the luminescence signal at […].
(§8) The data was fitted with GraphPad Prism 8.0 software using a four parameter inhibitor-reaction model to obtain the IC50 value (half inhibitory concentration) of the test compounds.

Another test deals with HCT116 MTAP WT cells. Put plainly: Proliferation inhibition of HCT116 cells in vitro (CellTiter Glo). In kind it is cell-based. As to conditions: 6 days, 9 concentrations starting from 30 μM, read-out: Cell proliferation inhibition rate HCT116 MTAP WT IC50 (nm).
Text: as §1, §2, §3, §4, §5, §6, §7, §8

Like-named read-outs stand apart in the source and are kept apart here. Where only a bound is given, the exact number is not on record here.

As to `Cc1ncc2c(N)nc3ccc(C(=O)N(Cc4ccc(C(F)(F)F)cn4)C(C)c4ncccn4)cc3n12` (stereo not drawn) [Example 2], the IC50 in test [1] (HCT116-MTAP null, 144 h) was 100 to 1000 nM; in the test on HCT116 MTAP WT cells (Homo sapiens, HCT-116, 144 h), 1000 to 10000 nM.

As for `Cc1nc(C)n2c1c(N)nc1ccc(C(=O)N(Cc3ccc(C(F)(F)F)cn3)C(C)c3ncccn3)cc12` (stereo not drawn) [Example 3], the IC50 in test [1] (HCT116-MTAP null, 144 h) was below 100 nM; in the test on HCT116 MTAP WT cells (Homo sapiens, HCT-116, 144 h), 1000 to 10000 nM.

Turning to `CCN(Cc1ccc(C(F)(F)F)cn1)C(=O)c1cc2c(cn1)nc(N)c1cnc(C)n12` [Example 9], the IC50 in test [1] (HCT116-MTAP null, 144 h) is below 100 nM; in the test with HCT116 MTAP WT cells (Homo sapiens, HCT-116, 144 h), 1000 to 10000 nM.

For the molecule `Cc1ccc2c(N)nc3ccc(C(=O)N(Cc4ccc(C(F)(F)F)cn4)C(C)c4ncccn4)cc3n12` (stereo not drawn) [Example 12], the IC50 in test [1] (HCT116-MTAP null, 144 h) was 100 to 1000 nM; in the test on HCT116 MTAP WT cells (Homo sapiens, HCT-116, 144 h), 1000 to 10000 nM.

On to `Cc1nc(C)n2c1c(N)nc1ccc(C(=O)N(Cc3ccc(C(F)(F)F)cn3)C(C)c3ncccn3)cc12` (stereo not drawn) [Example 14], for which the IC50 in test [1] is below 100 nM; in the test on HCT116 MTAP WT cells, 1000 to 10000 nM.

Regarding `CCN(Cc1ccc(C(F)(F)F)cn1)C(=O)c1ccc2nc(N)c3c(C)nc(C)n3c2c1` [Example 15, 4-Amino-N-ethyl-1,3-dimethyl-N-((5-trifluoromethyl)pyridin-2-ylmethyl) imidazolo[1,5-a]quinoxalin-8-carboxamide], the IC50 lay within 100 to 1000 nM in test [1] (HCT116-MTAP null, 144 h) and 1000 to 10000 nM in the test with HCT116 MTAP WT cells (Homo sapiens, HCT-116, 144 h).

For the molecule `Cc1ncc2c(N)nc3cnc(C(=O)N(Cc4ccc(C(F)(F)F)cn4)C(C)c4ncccn4)cc3n12` (stereo not drawn) [Example 16], the IC50 in test [1] (HCT116-MTAP null, 144 h) fell in the range of 100 to 1000 nM; in the test on HCT116 MTAP WT cells (Homo sapiens, HCT-116, 144 h), 1000 to 10000 nM.

`CCN(Cc1ccc(C(F)(F)F)cn1)C(=O)c1cc2c(cc1F)nc(N)c1cnc(C)n12` [Example 18]: the IC50 in test [1] (HCT116-MTAP null, 144 h) was below 100 nM; in the test on HCT116 MTAP WT cells (Homo sapiens, HCT-116, 144 h), 1000 to 10000 nM.

In the case of `COCCN(Cc1cn2ccccc2n1)C(=O)c1cc2c(cc1F)nc(N)c1cnc(C)n12` [Example 27], the IC50 is below 100 nM in test [1] (HCT116-MTAP null, 144 h) and 100 to 1000 nM in the test on HCT116 MTAP WT cells (Homo sapiens, HCT-116, 144 h).

Regarding `Cc1cn2c(n1)c(N)nc1ccc(C(=O)N3[C@H](C)COC[C@@H]3c3cn4ccccc4n3)cc12` [Example 29], the IC50 in test [1] (HCT116-MTAP null, 144 h) lay within 100 to 1000 nM; in the test on HCT116 MTAP WT cells (Homo sapiens, HCT-116, 144 h) it was 1000 to 10000 nM.

With `Cc1cn2c(n1)c(N)nc1cc(F)c(C(=O)N3[C@H](C)COC[C@@H]3c3cn4cc(C(F)(F)F)ccc4n3)cc12` [Example 31], the IC50 in test [1] (HCT116-MTAP null, 144 h) was below 100 nM; in the test with HCT116 MTAP WT cells (Homo sapiens, HCT-116, 144 h), 100 to 1000 nM.

Turning to `Cc1ncc2c(N)nc3cc(F)c(C(=O)N4C(C)COC[C@@H]4c4ncc(C(F)(F)F)cc4F)cc3n12` (stereo partly drawn) [Example 34], the IC50 in test [1] (HCT116-MTAP null, 144 h) is below 100 nM; in the test on HCT116 MTAP WT cells (Homo sapiens, HCT-116, 144 h), 1000 to 10000 nM.

For the molecule `Cc1ncc2c(N)nc3cc(F)c(C(=O)N4[C@H](C)COC[C@@H]4c4cn5ccccc5n4)cc3n12` [Example 38], the IC50 in test [1] (HCT116-MTAP null, 144 h) lay in the range of 100 to 1000 nM; in the test on HCT116 MTAP WT cells (Homo sapiens, HCT-116, 144 h), 1000 to 10000 nM.

`Cc1ncc2c(N)nc3cc(F)c(C(=O)N(C)C4COc5cc(Br)ccc54)cc3n12` (stereo not drawn) [Example 40]: the IC50 in test [1] (HCT116-MTAP null, 144 h) lay in the range of 100 to 1000 nM; with HCT116 MTAP WT cells (Homo sapiens, HCT-116, 144 h) it was 1000 to 10000 nM.

As for `Cc1ncc2c(N)nc3cc(F)c(C(=O)N(C)C4COc5cc(-c6cnn(C(F)(F)F)c6)ccc54)cc3n12` (stereo not drawn) [Example 46], the IC50 was in the range of 1000 to 10000 nM in test [1] (HCT116-MTAP null, 144 h) and 100 to 1000 nM in the test with HCT116 MTAP WT cells (Homo sapiens, HCT-116, 144 h).

For the molecule `Cc1ncc2c(N)nc3cc(F)c(C(=O)N(Cc4cn5cc(C#N)ccc5n4)c4cnn(C)c4)cc3n12` [Example 63], the IC50 in test [1] (HCT116-MTAP null, 144 h) lay in the range of 1000 to 10000 nM; in the test with HCT116 MTAP WT cells (Homo sapiens, HCT-116, 144 h), 1000 to 10000 nM.

Consider `Cc1ncc2c(N)nc3cc(F)c(C(=O)N(Cc4cn5ccccc5n4)C4CCN(C)C4)cc3n12` (stereo not drawn) [Example 65], for which the IC50 in test [1] (HCT116-MTAP null, 144 h) is 1000 to 10000 nM; in the test with HCT116 MTAP WT cells (Homo sapiens, HCT-116, 144 h), 1000 to 10000 nM.

With `Cc1ncc2c(N)nc3cc(F)c(C(=O)N(Cc4cn5ccc(C(F)(F)F)cc5n4)c4cnn(C)c4)cc3n12` [Example 70], the IC50 fell in the range of 100 to 1000 nM in test [1] (HCT116-MTAP null, 144 h) and 1000 to 10000 nM with HCT116 MTAP WT cells (Homo sapiens, HCT-116, 144 h).

In the case of `CCN(Cc1nc(-c2ccc(C(F)(F)F)nc2)cs1)C(=O)c1cc2c(cc1F)nc(N)c1cnc(C)n12` [Example 73], the IC50 in test [1] (HCT116-MTAP null, 144 h) lay in the range of 100 to 1000 nM; in the test with HCT116 MTAP WT cells (Homo sapiens, HCT-116, 144 h), 1000 to 10000 nM.

As for `CCN(C(=O)c1cc2c(cc1F)nc(N)c1cnc(C)n12)C1COc2cc(-c3cnn(C(F)(F)F)c3)ccc21` (stereo not drawn) [Example 75], the IC50 in test [1] (HCT116-MTAP null, 144 h) lay in the range of 100 to 1000 nM; in the test with HCT116 MTAP WT cells (Homo sapiens, HCT-116, 144 h), 1000 to 10000 nM.

For the molecule `CCN(Cc1nc(-c2cnn(C(F)(F)F)c2)cs1)C(=O)c1cc2c(cc1F)nc(N)c1cnc(C)n12` [Example 80], the IC50 in test [1] (HCT116-MTAP null, 144 h) is 100 to 1000 nM; in the test with HCT116 MTAP WT cells (Homo sapiens, HCT-116, 144 h), 1000 to 10000 nM.

Values taken from US20250376473A1, “PRMTS INHIBITOR AND USE THEREOF” (Cytosinlab Therapeutics Co., Ltd., priority 2022, published 2025).
